# Test results reported in patent publication US20200107568A1, “METHOD FOR REDUCING LINGERING SWEET AFTERTASTE” (SUNTORY HOLDINGS LIMITED, priority 2017, published 2020).
# Molecular target: T1, taste receptor (Homo sapiens, UniProt Q7RTX0+Q8TE23)
# T1 construct: endogenous in cells; host or cells: taste cells in the mouths of human panelists (in vivo tasting test)
# T1 sequence (Q8TE23 20-839): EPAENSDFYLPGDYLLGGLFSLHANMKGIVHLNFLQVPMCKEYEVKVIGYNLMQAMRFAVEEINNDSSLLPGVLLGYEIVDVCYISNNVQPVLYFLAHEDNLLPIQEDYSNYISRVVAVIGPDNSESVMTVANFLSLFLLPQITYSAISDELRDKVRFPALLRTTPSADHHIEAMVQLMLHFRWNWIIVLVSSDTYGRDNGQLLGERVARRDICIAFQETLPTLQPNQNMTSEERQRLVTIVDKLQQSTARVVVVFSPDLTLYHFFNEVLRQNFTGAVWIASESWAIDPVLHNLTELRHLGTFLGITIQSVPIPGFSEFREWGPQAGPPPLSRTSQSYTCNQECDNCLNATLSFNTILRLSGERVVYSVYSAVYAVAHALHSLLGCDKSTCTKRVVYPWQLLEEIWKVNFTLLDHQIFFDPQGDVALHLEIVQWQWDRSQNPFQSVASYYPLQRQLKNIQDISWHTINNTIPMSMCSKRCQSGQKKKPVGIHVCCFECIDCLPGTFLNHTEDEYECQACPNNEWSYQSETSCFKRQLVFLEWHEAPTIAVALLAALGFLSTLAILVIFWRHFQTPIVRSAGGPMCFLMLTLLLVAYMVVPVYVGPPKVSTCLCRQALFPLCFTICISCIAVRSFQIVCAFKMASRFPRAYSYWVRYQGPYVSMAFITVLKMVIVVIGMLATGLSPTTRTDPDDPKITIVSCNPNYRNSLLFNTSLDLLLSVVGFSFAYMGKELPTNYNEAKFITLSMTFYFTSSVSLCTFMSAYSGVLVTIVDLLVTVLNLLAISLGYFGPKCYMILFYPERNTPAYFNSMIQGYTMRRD
# T1 sequence (Q7RTX0 21-852): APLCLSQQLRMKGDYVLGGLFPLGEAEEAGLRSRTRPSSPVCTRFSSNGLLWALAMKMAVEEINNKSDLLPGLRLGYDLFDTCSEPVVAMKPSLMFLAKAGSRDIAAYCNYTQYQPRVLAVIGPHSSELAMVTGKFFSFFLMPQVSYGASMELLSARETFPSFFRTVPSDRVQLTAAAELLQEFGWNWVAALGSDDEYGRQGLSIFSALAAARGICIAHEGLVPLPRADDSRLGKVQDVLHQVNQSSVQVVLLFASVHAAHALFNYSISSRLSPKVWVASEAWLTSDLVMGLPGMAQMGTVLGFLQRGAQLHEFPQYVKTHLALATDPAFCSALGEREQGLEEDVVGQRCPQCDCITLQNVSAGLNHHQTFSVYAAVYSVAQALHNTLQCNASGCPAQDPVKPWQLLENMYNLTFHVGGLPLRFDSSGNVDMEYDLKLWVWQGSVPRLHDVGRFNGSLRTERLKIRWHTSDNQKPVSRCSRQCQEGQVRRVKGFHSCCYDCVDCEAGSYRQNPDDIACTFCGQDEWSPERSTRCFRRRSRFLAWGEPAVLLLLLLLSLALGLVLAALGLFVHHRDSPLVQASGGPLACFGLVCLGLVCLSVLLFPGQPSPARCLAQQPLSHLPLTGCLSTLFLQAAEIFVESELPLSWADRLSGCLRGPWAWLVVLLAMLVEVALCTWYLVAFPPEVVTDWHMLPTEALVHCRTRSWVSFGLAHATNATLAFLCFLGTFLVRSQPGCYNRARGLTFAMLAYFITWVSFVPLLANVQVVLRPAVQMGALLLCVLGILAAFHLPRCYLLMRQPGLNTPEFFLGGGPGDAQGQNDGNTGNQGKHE
# Assay: Evaluation of sweet lingering by sensory panel, VAS sweetness intensity rating
# Type: in vivo
# Settings: with respect to rebaudioside D (reference solution α1, 593 ppm); blend 1:1; N=4; found/theoretical index minus 1
# Protocol: (1) A reference solution α (a beverage containing only a high-intensity sweetener as a sweetener), a reference solution β (a beverage containing another sweetener and having the same sweetness intensity as the reference solution α), and a sample solution γ (a beverage composed of a mixture of the reference solutions α and β at a predetermined ratio as a sample solution) are prepared in individual cups. (2) The mouth is rinsed thoroughly with water and emptied. This rinsing process is repeated four times. (3) A defined amount (10 ml) of the reference solution α, or β, or the sample solution γ is put in the mouth in one breath, and spit out after 5 sec. […]
# A sweet lingering was measured by the above-described method of with respect to each of 3 solutions of a reference solution α, a reference solution β, and a sample solution γ composed thereof, which were adjusted to the same sweetness intensity. The order of the measurements was determined randomly for each evaluator. Next, the theoretical value of the sweet lingering of a sample solution γ is determined from the blend ratio (A:B) of the reference solution α to the reference solution β. […]
# Each panel evaluated the respective sweet lingering of the reference solutions α1, and β1, and the sample solution γ1 by the above-described method. […]
row,Compound,Effect of reducing a sweet lingering
1,O=C(CO)[C@@H](O)[C@H](O)[C@H](O)CO [fructose],7%
2,thaumatin,43%
